Experimental data from article PMC8198714, “New Coumarin Derivatives as Cholinergic and Cannabinoid System Modulators” (Molecules, 2021).
Read-outs that look alike come from different tables or passages of the source.

Tests used:
[1] = biological target: T1, FAAH in rat brain membranes (Rattus norvegicus, UniProt P97612); conditions: read-out: IC50 FAAH with 20 min Pre-incubation; cited from earlier work
T1 sequence (P97612 1-579): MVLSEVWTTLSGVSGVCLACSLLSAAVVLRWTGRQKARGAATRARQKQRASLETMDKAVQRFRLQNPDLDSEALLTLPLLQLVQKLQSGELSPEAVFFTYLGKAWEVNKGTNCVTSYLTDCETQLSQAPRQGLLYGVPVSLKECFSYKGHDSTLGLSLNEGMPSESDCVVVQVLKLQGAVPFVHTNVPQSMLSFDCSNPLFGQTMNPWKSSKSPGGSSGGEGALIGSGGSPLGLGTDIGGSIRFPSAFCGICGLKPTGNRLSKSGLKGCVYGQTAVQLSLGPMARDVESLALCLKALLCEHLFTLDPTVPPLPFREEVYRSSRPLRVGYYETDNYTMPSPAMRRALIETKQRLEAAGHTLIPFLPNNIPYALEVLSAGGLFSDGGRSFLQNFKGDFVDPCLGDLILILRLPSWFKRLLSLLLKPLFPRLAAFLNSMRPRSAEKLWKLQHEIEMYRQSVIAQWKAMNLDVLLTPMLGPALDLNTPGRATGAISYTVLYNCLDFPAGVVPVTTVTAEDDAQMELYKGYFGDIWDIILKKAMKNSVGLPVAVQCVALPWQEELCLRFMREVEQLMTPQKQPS

[2] = biological target: T2, hAChE (Homo sapiens, UniProt P22303); test: Stopped time assay of hAChE carbamoylation; assay type: biochemical; conditions: determined at IC50 value
T2 construct: purchased Sigma-Aldrich, Merck group, Milan, Italy
Experimental: Given these premises, we initially investigated the time-dependent ChEs inhibition by 2–4 by evaluating the time required to achieve a plateau in the inhibition plot.
A stopped time assay was performed in order to define the time required for enzyme carbamoylation. In detail, residual enzyme activity upon selected incubation times was assessed by following the same protocol described in section “Determination of the inhibitory potency towards human AChE and BuChE”. […] The mixture was incubated at 37 °C for given times (from 5 to 90 min) before the addition of the substrate (AChT or BChT, respectively) and the determination of residual enzyme activity by Ellman’s method. A parallel control, with no inhibitor, allowed to adjust activities measured at various time.

[3] = biological target: T3, human recombinant AChE (hAChE) (Homo sapiens, UniProt P22303); test: Inhibition of human AChE, Ellman's method; assay type: biochemical; conditions: for IC50: human recombinant AChE; for inhibition at 40 µM: [I] = 40 µM, read-out: hAChE % Inhibition (±SEM)
T3 construct: purchased Sigma-Aldrich, Merck group, Milan, Italy
Experimental: (§1) The capacity of 2–7 to inhibit human ChE activity was assessed using the Ellman’s method. Initial rate assays were performed at 37 °C with a V-530 double beam spectrophotometer (Jasco Corporation, Cremella (LC), Italy city, state/prov abbrev if USA/Canada, country). […] AChE stock solution was prepared by dissolving human recombinant AChE lyophilized powder (Sigma-Aldrich, Merck group, Milan, Italy) in 0.1 M phosphate buffer at pH 8.0 containing 0.1% Triton X-100. Stock solution of BuChE was prepared by diluting commercial stock solution of BuChE from human serum (Sigma) in an aqueous solution of gelatin (0.2%) in order to have a final activity comprised between 0.11–0.15 ΔAbs/min. Stock solutions of inhibitors (1–2 mM) were prepared in methanol and diluted in methanol. […] Incubation times were: 60 min for 2 and 90 min for 3 and 4 on hAChE assay, and 45 min for 2 and 60 min for 3 and 4 on hBuChE assay, as assessed on the preliminary determination of the carbamoylation rate. Blank solutions containing all components except the enzyme were prepared in order to account for the non-enzymatic hydrolysis of the substrate. The reaction rates obtained in the absence and presence of inhibitor were compared and the percent inhibition due to the presence of inhibitor was calculated. […] Two independent experiments were performed for the determination of each IC50 value or for the calculation of the % of inhibition where the IC50 value could not be determined because of low inhibitory activity.

[4] = biological target: T4, Aβ42 self-aggregation (Homo sapiens, UniProt P05067); test: Inhibition of Aβ42 self-aggregation, thioflavin T fluorescence; assay type: biochemical; conditions: read-out: % Inhibition Aβ42 self-aggregation (±SEM)
T4 construct: pretreated Aβ42 samples (Bachem AG, Bubendorf, Switzerland); purchased Bachem AG, Bubendorf, Switzerland
Experimental: Finally, in a multitarget perspective, the compounds were tested to evaluate their Aβ anti-aggregation properties.
As reported in a previously published protocol, 1,1,1,3,3,3-hexafluoro, 2-propanol pretreated Aβ42 samples (Bachem AG, Bubendorf, Switzerland) were solubilized with a CH3CN/0.3 mM Na2CO3/250 mM NaOH (48.4:48.4:3.2) mixture. Experiments were performed by incubating the peptide in 10 mM phosphate buffer (pH = 8.0) containing 10 mM NaCl, at 30 °C for 24 h (final Aβ concentration = 50 μM) with and without inhibitor (50 μM, Aβ/inhibitor = 1/1). Blanks containing the tested inhibitors were also prepared and tested. To quantify amyloid fibrils formation, the thioflavin T (ThT) fluorescence method was used. After incubation, samples were diluted to a final volume of 2.0 mL with 50 mM glycine-NaOH buffer (pH 8.5) containing 1.5 μM ThT. A 300 s-time scan of fluorescence intensity was carried out (λexc = 446 nm; λem = 490 nm, FP-6200 fluorometer, Jasco Europe), and values at plateau were averaged after subtracting the background fluorescence of 1.5 μM ThT solution. The fluorescence intensities were compared and the percent inhibition due to the presence of the inhibitor.

[5] = biological target: T1, FAAH in rat brain membranes; test: FAAH assay, [14C]-AEA hydrolysis in rat brain membranes
[6] = biological target: T5, BuChE from human serum (hBuChE) (Homo sapiens, UniProt P06276); test: Inhibition of human BuChE, Ellman's method; assay type: biochemical; conditions: for IC50: BuChE from human serum
T5 construct: commercial stock solution of BuChE from human serum (Sigma); purchased Sigma; host or cells: human serum
Experimental: as §1

[7] = biological target: T6, human recombinant CB1 receptor (Homo sapiens, UniProt P21554); test: Competition binding assay with [3H]-CP-55,940 at CB1; conditions: for Ki: [3H]-CP55940 displacement, HEK-293 membranes, read-out: Ki on CB1 (m ± sd); for % Displacement at max tested on CB1 (m ± sd): max tested concentration 10 µM, [3H]-CP55940
T6 construct: purchased Perkin Elmer, Milan, Italy; host or cells: HEK-293
Experimental: (§2) Competition binding assay for CB1 and CB2 receptors was performed as previously reported. […] All compounds were tested following the procedure described by the manufacturer (Perkin Elmer, Milan, Italy).

[8] = biological target: T7, human recombinant CB2 receptor (Homo sapiens, UniProt P34972); test: Competition binding assay with [3H]-CP-55,940 at CB2; conditions: for Ki: [3H]-CP55940 displacement, HEK-293 membranes, read-out: Ki on CB2 (m ± sd); for % Displacement at max tested on CB2 (m ± sd): max tested concentration 10 µM, [3H]-CP55940
T7 construct: purchased Perkin Elmer, Milan, Italy; host or cells: HEK-293
Experimental: as §2

[9] = IC50 FAAH (m ± sd), rat brain membranes, AEA hydrolysis, without pre-incubation
[10] = IC50 FAAH with 20 min Pre-incubation, rat brain membranes, 20 min pre-incubation at 37 °C
[11] = incubation time 60 min, read-out: IC50 hBuChE (±SEM)
[12] = incubation 20 min, read-out: hBuChE IC50 (±SEM)

T7 sequence (P34972 whole entry): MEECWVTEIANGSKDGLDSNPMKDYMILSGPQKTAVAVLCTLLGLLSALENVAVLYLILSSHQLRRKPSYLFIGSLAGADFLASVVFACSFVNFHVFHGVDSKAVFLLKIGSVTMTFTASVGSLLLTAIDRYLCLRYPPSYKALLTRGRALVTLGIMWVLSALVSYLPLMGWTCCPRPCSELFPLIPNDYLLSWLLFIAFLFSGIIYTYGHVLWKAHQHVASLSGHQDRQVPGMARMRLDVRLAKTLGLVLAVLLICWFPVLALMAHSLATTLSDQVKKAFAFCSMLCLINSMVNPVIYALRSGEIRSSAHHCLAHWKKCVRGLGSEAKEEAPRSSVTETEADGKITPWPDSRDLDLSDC
T4 sequence (P05067 672-713 limits assumed): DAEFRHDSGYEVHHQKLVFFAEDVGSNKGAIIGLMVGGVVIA
T5 sequence (P06276 29-602): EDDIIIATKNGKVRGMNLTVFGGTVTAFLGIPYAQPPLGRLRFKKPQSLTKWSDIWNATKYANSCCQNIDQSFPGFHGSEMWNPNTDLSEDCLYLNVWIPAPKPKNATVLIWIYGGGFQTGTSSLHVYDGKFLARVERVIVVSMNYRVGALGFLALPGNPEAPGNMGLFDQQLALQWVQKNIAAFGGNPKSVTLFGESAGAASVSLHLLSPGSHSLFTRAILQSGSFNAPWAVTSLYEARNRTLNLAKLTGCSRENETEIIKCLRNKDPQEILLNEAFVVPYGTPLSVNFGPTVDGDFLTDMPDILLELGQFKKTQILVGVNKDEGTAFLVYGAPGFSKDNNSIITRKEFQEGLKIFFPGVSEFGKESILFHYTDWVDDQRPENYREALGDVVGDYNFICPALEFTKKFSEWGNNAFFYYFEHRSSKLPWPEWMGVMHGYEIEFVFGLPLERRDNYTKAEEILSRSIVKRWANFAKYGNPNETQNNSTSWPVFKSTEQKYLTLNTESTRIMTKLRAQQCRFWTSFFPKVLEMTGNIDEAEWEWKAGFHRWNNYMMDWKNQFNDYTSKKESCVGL
T3 sequence (P22303 32-614): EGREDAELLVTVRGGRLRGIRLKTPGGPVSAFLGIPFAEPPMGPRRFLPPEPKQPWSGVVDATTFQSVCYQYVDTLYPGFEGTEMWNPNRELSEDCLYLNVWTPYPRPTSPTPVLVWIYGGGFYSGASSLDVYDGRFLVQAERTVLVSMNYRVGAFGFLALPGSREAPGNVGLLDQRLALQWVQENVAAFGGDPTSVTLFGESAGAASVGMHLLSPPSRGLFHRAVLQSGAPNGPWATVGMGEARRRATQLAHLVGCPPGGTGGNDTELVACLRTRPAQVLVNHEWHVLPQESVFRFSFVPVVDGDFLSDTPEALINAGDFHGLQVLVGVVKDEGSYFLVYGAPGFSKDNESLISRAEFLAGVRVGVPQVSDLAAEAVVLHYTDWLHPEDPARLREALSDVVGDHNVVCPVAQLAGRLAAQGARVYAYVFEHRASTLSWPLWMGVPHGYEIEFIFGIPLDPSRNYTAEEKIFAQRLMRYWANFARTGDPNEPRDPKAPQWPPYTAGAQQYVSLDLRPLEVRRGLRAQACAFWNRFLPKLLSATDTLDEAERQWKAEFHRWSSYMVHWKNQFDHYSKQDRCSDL
T6 sequence (P21554 whole entry): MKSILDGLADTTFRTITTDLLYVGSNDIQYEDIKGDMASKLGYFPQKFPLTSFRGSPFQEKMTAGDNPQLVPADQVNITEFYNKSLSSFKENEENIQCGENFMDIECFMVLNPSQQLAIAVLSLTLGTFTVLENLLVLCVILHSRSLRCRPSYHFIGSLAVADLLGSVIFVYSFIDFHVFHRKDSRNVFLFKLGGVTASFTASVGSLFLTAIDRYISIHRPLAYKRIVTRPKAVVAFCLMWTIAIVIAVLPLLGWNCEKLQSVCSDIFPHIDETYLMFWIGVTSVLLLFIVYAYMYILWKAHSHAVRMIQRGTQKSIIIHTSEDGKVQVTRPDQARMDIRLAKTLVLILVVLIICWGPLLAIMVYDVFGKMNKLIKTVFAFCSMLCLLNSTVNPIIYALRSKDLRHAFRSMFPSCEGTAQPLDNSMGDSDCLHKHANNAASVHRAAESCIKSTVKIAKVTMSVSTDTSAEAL
T2 sequence (P22303 32-614): as the sequence (P22303 32-614) above

SMILES | inhibition at 50 µM [4] [%] | IC50 [5, 9] [µM] | IC50 [5, 10] [µM] | inhibition at 40 µM ([3]; incubation 20 min) [%] | Ki [7] [µM] | % Displacement at max tested on CB1 (m ± sd) [7] | IC50 [5] [µM] | IC50 [6, 12] [µM] | Ki [8] [µM] | % Displacement at max tested on CB2 (m ± sd) [8] | also measured
CCCCCCCNC(=O)Oc1cccc(CN(C)CCCOc2ccc3ccc(=O)oc3c2)c1 [Compound 1] |  |  |  |  |  |  |  |  |  |  | IC50 [1]: 0.029 ± 0.001 µM
CN(CCCOc1ccc2ccc(=O)oc2c1)Cc1cccc(OC(=O)NC2CCCC2)c1 [Compound 2, 3-((Methyl(3-((2-oxo-2H-chromen-7-yl)oxy)propyl)amino)methyl)phenyl cyclopentylcarbamate] | 22.9 ± 1.3 | 6.09 ± 1.55 | 2.53 ± 0.55 |  |  |  |  |  |  |  | pseudo-first order kobs of hAChE carbamoylation [2]: 0.038 min⁻¹; IC50 ([3]; incubation time 60 min, read-out: IC50 hAChE (±SEM)): 0.521 ± 0.014 µM; IC50 ([6]; incubation time 45 min, read-out: IC50 hBuChE (±SEM)): 0.00842 ± 0.00013 µM
CN(CCCOc1ccc2ccc(=O)oc2c1)Cc1cccc(OC(=O)NC2CCCCC2)c1 [Compound 3, 3-((Methyl(3-((2-oxo-2H-chromen-7-yl)oxy)propyl)amino)methyl)phenyl cyclohexylcarbamate] | 18.9 ± 2.1 | 2.55 ± 0.33 | 1.33 ± 0.28 |  |  |  |  |  |  |  | IC50 ([3]; incubation time 90 min, read-out: IC50 hAChE (±SEM)): 0.104 ± 0.021 µM; IC50 [6, 11]: 0.0349 ± 0.0042 µM
CN(CCCOc1ccc2ccc(=O)oc2c1)Cc1cccc(OC(=O)Nc2ccc3ccccc3c2)c1 [Compound 4, 3-((Methyl(3-((2-oxo-2H-chromen-7-yl)oxy)propyl)amino)methyl)phenyl naphthalen-2-ylcarbamate] | 13.9 ± 3.8 | 1.58 ± 0.26 | 0.63 ± 0.08 |  |  |  |  |  |  |  | IC50 [6, 11]: 0.002 ± 0.0002 µM; difference in IC50 values hAChE vs hBuChE (selectivity) ([6]; hBuChE over hAChE): 100 fold
CCCCCCCNC(=O)COc1cccc(CN(C)CCCOc2ccc3ccc(=O)oc3c2)c1 [Compound 5, N-Heptyl-2-(3-((methyl(3-((2-oxo-2H-chromen-7-yl)oxy)propyl)amino)methyl)phenoxy)acetamide] |  |  |  | 13.6 ± 5.1 | > 10 | 10 (35.57 ± 0.43) % | > 1000 | 182 ± 28 | > 10 | 10 (41.41 ± 0.87) % | 
CN(CCCOc1ccc2ccc(=O)oc2c1)Cc1cccc(OCC(=O)NC2CCCC2)c1 [Compound 6, N-Cyclopentyl-2-(3-((methyl(3-((2-oxo-2H-chromen-7yl)oxy)propyl)amino)methyl)phenoxy)-acetamide] | 20.3 ± 1.9 |  |  | 41.7 ± 0.5 | > 10 | 10 (35.75 ± 0.65) % | > 1000 | 11.6 ± 0.8 | > 10 | 10 (48.33 ± 1.73) % | IC50 ([3]; incubation 20 min, read-out: IC50 hAChE): 59.4 µM
CN(CCCOc1ccc2ccc(=O)oc2c1)Cc1cccc(OCC(=O)NC2CCCCC2)c1 [Compound 7, N-Cyclohexyl-2-(3-((methyl(3-((2-oxo-2H-chromen-7-yl)oxy)propyl)amino)methyl)phenoxy)-acetamide] | 13.5 ± 5 |  |  | 34 ± 3.2 | > 10 | 10 (39.62 ± 10.48) % | > 1000 | 12.8 ± 2.1 | > 10 | 10 (14.3 ±3.83) % | 
